# According to patent US4442044A, “Process for preparing monoesters and diesters of N-alkyl substituted amino methyl phosphonic acid” (priority 1983, dated 1984):
# Legend:
# Experiment in all cases: post-emergent herbicidal activity, greenhouse
# Format in all cases: in vivo
# Conditions in all cases: Table I
# [1] = system: Lambsquarters
# Excerpt: (§1) A good grade of top soil is placed in aluminum pans having holes in the bottom and compacted to a depth of 0.95 to 1.27 cm. from the top of the pan. A predetermined number of seeds of each of several dicotyledonous and monocotyledonous annual plant species and/or vegetative propagules for the perennial plant species were placed on the soil and pressed into the soil surface. The seeds and/or vegetative propagules are covered with soil and leveled. The pans are then placed on a sand bench in the greenhouse and watered from below as needed. After the plants reach the desired age (two to three weeks), each pan except for the control pans is removed individually to a spraying chamber and sprayed by means of an atomizer operating at a positive air pressure of approximately 1.46 kg/cm^2 absolute. The atomizer contains 6 ml. of a solution or suspension of the chemical. In that 6 ml., is an amount of a cyclohexanone emulsifying agent mixture to give a spray solution or suspension which contains about 0.4% by weight of the emulsifier. The spray solution or suspension contains a sufficient amount of the candidate chemical in order to give application rates corresponding to those set forth in the tables. The spray solution is prepared by taking an aliquot of a 1.0% by weight stock solution or suspension of the candidate chemical in an organic solvent such as acetone or tetrahydrofuran or in water. The emulsifying agent employed is a mixture comprising 35 weight percent butylamine dodecylbenzene sulfonate and 65 weight percent of a tall oil ethylene oxide condensate having about 11 moles of ethylene oxide per mole of tall oil. The pans are returned to the greenhouse and watered as before and the injury to the plants as compared to the control is observed at approximately two and four weeks as indicated in the tables under WAT and the results recorded. In some instances, the two-week observations are omitted.
# (§2) The post-emergent herbicidal activity index used in Tables I and II is as follows: […]
# [2] = system: Cocklebur
# Excerpt: as §1, §2
# [3] = system: Velvetleaf
# Excerpt: as §1, §2
# [4] = system: Johnsongrass
# Excerpt: as §1, §2
# [5] = system: Yellow Nutsedge
# Excerpt: as §1, §2
# [6] = system: Quackgrass
# Excerpt: as §1, §2
# [7] = system: Morningglory
# Excerpt: as §1, §2
# [8] = system: Barnyardgrass
# Excerpt: as §1, §2
# [9] = system: Smartweed
# Excerpt: as §1, §2
# [10] = system: Downy Brome
# Excerpt: as §1, §2
# [11] = system: Canada Thistle
# Excerpt: as §1, §2
compound,measurement,setting,value
"CCOC(=O)CNCP(=O)(OCC1CCCCO1)OCC1CCCCO1 (centres unmarked) [Example 23, glycine, N-[[bis(tetrahydro-2H-pyran-2-ylmethoxy)phosphinyl]methyl]-, ethyl ester]",post-emergent herbicidal activity index,"[1]; 2 WAT, 5.6 kg/h",0 (0-24% control)
same,post-emergent herbicidal activity index,"[1]; 4 WAT, 11.2 kg/h",0 (0-24% control)
same,post-emergent herbicidal activity index,"[2]; 2 WAT, 5.6 kg/h",0 (0-24% control)
same,post-emergent herbicidal activity index,"[2]; 4 WAT, 11.2 kg/h",0 (0-24% control)
same,post-emergent herbicidal activity index,"[3]; 2 WAT, 5.6 kg/h",0 (0-24% control)
same,post-emergent herbicidal activity index,"[3]; 4 WAT, 11.2 kg/h",0 (0-24% control)
same,post-emergent herbicidal activity index,"[4]; 2 WAT, 5.6 kg/h",0 (0-24% control)
same,post-emergent herbicidal activity index,"[5]; 2 WAT, 5.6 kg/h",0 (0-24% control)
same,post-emergent herbicidal activity index,"[5]; 4 WAT, 11.2 kg/h",0 (0-24% control)
same,post-emergent herbicidal activity index,"[6]; 2 WAT, 5.6 kg/h",0 (0-24% control)
same,post-emergent herbicidal activity index,"[6]; 4 WAT, 11.2 kg/h",0 (0-24% control)
same,post-emergent herbicidal activity index,"[7]; 2 WAT, 5.6 kg/h",0 (0-24% control)
same,post-emergent herbicidal activity index,"[7]; 4 WAT, 11.2 kg/h",1 (25-49% control)
same,post-emergent herbicidal activity index,"[8]; 2 WAT, 5.6 kg/h",0 (0-24% control)
same,post-emergent herbicidal activity index,"[8]; 4 WAT, 11.2 kg/h",1 (25-49% control)
same,post-emergent herbicidal activity index,"[9]; 2 WAT, 5.6 kg/h",0 (0-24% control)
same,post-emergent herbicidal activity index,"[9]; 4 WAT, 11.2 kg/h",1 (25-49% control)
same,post-emergent herbicidal activity index,"[10]; 2 WAT, 5.6 kg/h",0 (0-24% control)
same,post-emergent herbicidal activity index,"[10]; 4 WAT, 11.2 kg/h",0 (0-24% control)
same,post-emergent herbicidal activity index,"[11]; 2 WAT, 5.6 kg/h",0 (0-24% control)
same,post-emergent herbicidal activity index,"[11]; 4 WAT, 11.2 kg/h",0 (0-24% control)
CCOC(=O)CNCP(=O)(O)OC(C)CC(=O)OCC (centres unmarked) [Example 25],post-emergent herbicidal activity index,"[1]; 4 WAT, 5.6 kg/h",0 (0-24% control)
same,post-emergent herbicidal activity index,"[1]; 4 WAT, 11.2 kg/h",0 (0-24% control)
same,post-emergent herbicidal activity index,"[2]; 4 WAT, 5.6 kg/h",0 (0-24% control)
same,post-emergent herbicidal activity index,"[2]; 4 WAT, 11.2 kg/h",2 (50-74% control)
same,post-emergent herbicidal activity index,"[3]; 4 WAT, 5.6 kg/h",0 (0-24% control)
same,post-emergent herbicidal activity index,"[3]; 4 WAT, 11.2 kg/h",1 (25-49% control)
same,post-emergent herbicidal activity index,"[4]; 4 WAT, 5.6 kg/h",1 (25-49% control)
same,post-emergent herbicidal activity index,"[4]; 4 WAT, 11.2 kg/h",2 (50-74% control)
same,post-emergent herbicidal activity index,"[5]; 4 WAT, 5.6 kg/h",0 (0-24% control)
same,post-emergent herbicidal activity index,"[5]; 4 WAT, 11.2 kg/h",2 (50-74% control)
same,post-emergent herbicidal activity index,"[6]; 4 WAT, 5.6 kg/h",0 (0-24% control)
same,post-emergent herbicidal activity index,"[6]; 4 WAT, 11.2 kg/h",1 (25-49% control)
same,post-emergent herbicidal activity index,"[7]; 4 WAT, 5.6 kg/h",1 (25-49% control)
same,post-emergent herbicidal activity index,"[7]; 4 WAT, 11.2 kg/h",2 (50-74% control)
same,post-emergent herbicidal activity index,"[8]; 4 WAT, 5.6 kg/h",1 (25-49% control)
same,post-emergent herbicidal activity index,"[8]; 4 WAT, 11.2 kg/h",2 (50-74% control)
same,post-emergent herbicidal activity index,"[9]; 4 WAT, 5.6 kg/h",0 (0-24% control)
same,post-emergent herbicidal activity index,"[9]; 4 WAT, 11.2 kg/h",0 (0-24% control)
same,post-emergent herbicidal activity index,"[10]; 4 WAT, 5.6 kg/h",0 (0-24% control)
same,post-emergent herbicidal activity index,"[10]; 4 WAT, 11.2 kg/h",0 (0-24% control)
same,post-emergent herbicidal activity index,"[11]; 4 WAT, 5.6 kg/h",0 (0-24% control)
same,post-emergent herbicidal activity index,"[11]; 4 WAT, 11.2 kg/h",1 (25-49% control)
"CCOC(=O)CNCP(=O)(O)OCC(Cl)(Cl)Cl [Example 26, glycine, N-[[(2,2,2-trichloroethoxy)hydroxyphosphinyl]methyl]-ethyl ester]",post-emergent herbicidal activity index,"[1]; 4 WAT, 11.2 kg/h",1 (25-49% control)
same,post-emergent herbicidal activity index,"[1]; 4 WAT, 56.0 kg/h",1 (25-49% control)
same,post-emergent herbicidal activity index,"[2]; 4 WAT, 11.2 kg/h",1 (25-49% control)
same,post-emergent herbicidal activity index,"[2]; 4 WAT, 56.0 kg/h",1 (25-49% control)
same,post-emergent herbicidal activity index,"[3]; 4 WAT, 11.2 kg/h",0 (0-24% control)
same,post-emergent herbicidal activity index,"[3]; 4 WAT, 56.0 kg/h",0 (0-24% control)
same,post-emergent herbicidal activity index,"[4]; 4 WAT, 11.2 kg/h",0 (0-24% control)
same,post-emergent herbicidal activity index,"[4]; 4 WAT, 56.0 kg/h",0 (0-24% control)
same,post-emergent herbicidal activity index,"[5]; 4 WAT, 11.2 kg/h",0 (0-24% control)
same,post-emergent herbicidal activity index,"[5]; 4 WAT, 56.0 kg/h",1 (25-49% control)
same,post-emergent herbicidal activity index,"[6]; 4 WAT, 11.2 kg/h",0 (0-24% control)
same,post-emergent herbicidal activity index,"[6]; 4 WAT, 56.0 kg/h",0 (0-24% control)
same,post-emergent herbicidal activity index,"[7]; 4 WAT, 11.2 kg/h",0 (0-24% control)
same,post-emergent herbicidal activity index,"[7]; 4 WAT, 56.0 kg/h",1 (25-49% control)
same,post-emergent herbicidal activity index,"[8]; 4 WAT, 11.2 kg/h",1 (25-49% control)
same,post-emergent herbicidal activity index,"[8]; 4 WAT, 56.0 kg/h",1 (25-49% control)
same,post-emergent herbicidal activity index,"[9]; 4 WAT, 11.2 kg/h",0 (0-24% control)
same,post-emergent herbicidal activity index,"[9]; 4 WAT, 56.0 kg/h",1 (25-49% control)
same,post-emergent herbicidal activity index,"[10]; 4 WAT, 11.2 kg/h",0 (0-24% control)
same,post-emergent herbicidal activity index,"[10]; 4 WAT, 56.0 kg/h",0 (0-24% control)
same,post-emergent herbicidal activity index,"[11]; 4 WAT, 11.2 kg/h",0 (0-24% control)
same,post-emergent herbicidal activity index,"[11]; 4 WAT, 56.0 kg/h",0 (0-24% control)
